Measurements: patent US9675574B2, “Composition comprising a combination of DHA and EPA for administration prior to commencement of chemotherapy” (Fresenius Kabi Deutschland GmbH, priority 2010, dated 2017)

Assays:
[1] = test system: HT-29 colorectal cancer cells; assay: 15-day clonogenicity experiment, pretreatment before irradiation (Example 6); assay type: cell-based, human; details: 48 h pretreatment with 20 μM to 100 μM, irradiation 2 to 6 Gy
Experimental: (§1) HT-29 colorectal cancer cells (ATCC number HTB-38) were cultured in Dulbecco's Modified Eagle's Medium (DMEM, product number D 5030, Sigma Chemie AG, Buchs, Switzerland) supplemented with 10% heat-inactivated fetal calf serum (FBS), 1 g/L D-glucose, 3.7 g/L sodium bicarbonate and 0.1 g/L penicillin-streptomycin (all additives from Life Technologies Inc., Grand Island, N.Y.). The cells were cultured at 37° C. in a humidified atmosphere with a 5% CO2 content and kept in the exponential growth phase by twice weekly subculturing. The cultures were tested for mycoplasma infection using the MycoAlert Detection Kit (product number LT07-118, Cambrex, Verviers, Belgium).
The cytotoxic effect of a two-day (48 hours) pretreatment of HT-29 cells with 0 μM, 20 μM, 50 μM or 100 μM DHA or EPA on irradiation of the cells at 0 Gy, 2 Gy, 4 Gy or 6 Gy was examined in a 15-day clonogenicity experiment.
To this end, the culture medium of the cells was replaced with medium which contained the relevant concentrations (0 μM, 20 μM, 50 μM or 100 μM) of DHA or EPA. Controls were cultured in medium without EPA and without DHA. […] The cells were then detached from the culture vessel by means of trypsinization (1× trypsin-EDTA, Life Technologies Inc., Grand Island, N.Y.), resuspended and counted. […] The surviving cell fraction was calculated with reference to the untreated controls (S/S0).

HT-29 = assay: 15-day clonogenicity experiment, treatment prior to versus after irradiation (Example 7); assay type: cell-based, human; details: treatment prior to irradiation (A) versus untreated controls (C) and treatment after irradiation (B); for formation of colonies: 20-100 μM, 48 h
Experimental: as §1, with “Human” for “HT-29 colorectal”, “cell lines (HT-29; ATCC” for “cells (ATCC”, “are” for “were”, “NY).” for “N.Y.).”
The cytotoxic effect of treatment of the cells with DHA, EPA, MCTs and iron on irradiation of the cells at 0 Gy, 2 Gy, 4 Gy or 6 Gy is examined in a 15-day clonogenicity experiment.
Firstly, the influence of 0 μM, 20 μM, 50 μM or 100 μM DHA or EPA in the case of treatment of the cells (A) prior to the irradiation compared to the treatment of the cells after the irradiation (B) is determined. Cells untreated with EPA or DHA, which are also irradiated, serve as a control (C).
In the case of the cells which are treated with EPA or DHA prior to the irradiation (A), the culture medium of the cells is replaced with medium containing the relevant concentrations (0 μM, 20 μM, 50 μM or 100 μM) of DHA or EPA. The cells are cultured for 48 hours in the medium, and then irradiated with an individual radiation dose of 0 Gy (control), 2 Gy, 4 Gy or 6 Gy in an X-ray 6 MV instrument.
In the case of cells which are treated with EPA or DHA after the irradiation (B) and in the case of the control cells (C), a media change is carried out 48 hours prior to the irradiation; the cells receive normal culture medium. After 48 hours, the cells are irradiated with an individual radiation dose of 0 Gy (control), 2 Gy, 4 Gy or 6 Gy in an X-ray 6 MV instrument.
After the irradiation, the cells are then detached from the culture vessel by means of trypsinization (1× trypsin-EDTA, Life Technologies Inc., Grand Island, NY), resuspended and counted. The cells are subsequently serially diluted according to a standard protocol and seeded in 100×20 mm cell culture dishes containing 10 mL of medium in a cell count which leads to the formation of about 200 colonies. Cells of groups A and C are seeded in normal culture medium, and cells of group B are seeded in medium containing the relevant concentrations (0 μM, 20 μM, 50 μM or 100 μM) of DHA or EPA.
After 48 hours, all cells are subjected to a media change, after which all cells are cultured in normal culture medium.
After a total of 14 days of incubation at 37° C., the vessels are washed with phosphate-buffered saline (PBS, Life Technologies Inc., Grand Island, N.Y.), fixed, and stained with a 0.5% crystal violet solution in methanol/glacial acetic acid (3:1, v/v). The surviving cell fraction is calculated with reference to the untreated controls (S/S0).

[2] = test system: colorectal cancer cell lines, breast cancer cell lines and lung cancer cell lines; assay: Clonogenicity experiment with further tumor cell lines, pre- versus posttreatment (Example 7); assay type: cell-based; details: irradiation
Experimental: The experiment is carried out analogously with further tumor cell lines (colorectal cancer cell lines, breast cancer cell lines and lung cancer cell lines).

Row | SMILES | effect on survival of HT-29 cells in combination with irradiation [1] | size of colonies formed (HT-29) | surviving cell fraction (S/S0) (HT-29) | formation of colonies (HT-29) | cytotoxic effect of pretreatment compared to posttreatment [2]
1 | CC/C=C\C/C=C\C/C=C\C/C=C\C/C=C\C/C=C\CCC(=O)O [DHA, (4Z,7Z,10Z,13Z,16Z,19Z)-docosa-4,7,10,13,16,19-hexaenoic acid] | synergistic effect | colonies formed are smaller | also smaller | fewer colonies | greater cytotoxic effect
2 | CC/C=C\C/C=C\C/C=C\C/C=C\C/C=C\CCCC(=O)O [EPA, (5Z,8Z,11Z,14Z,17Z)-eicosa-5,8,11,14,17-pentaenoic acid] | synergistic effect | colonies formed are smaller | also smaller | fewer colonies | greater cytotoxic effect
